The values that follow come from patent US7935706B2, “Nitrogen-containing heterocycle derivatives substituted with cyclic group” (Shionogi & Co., Ltd., priority 2006, dated 2011).

Read-outs that look alike come from different tables or passages of the source.

Test [1] addresses T1, NMDA receptor (NR1 subunit and NR2B subunit) (Mus musculus, UniProt P35438+Q01097).
T1 construct: expressed in transfected cells; host or cells: HEK293 cells, transient transfection with pcDNA3.1 plasmids
Briefly: Measurement of expression of NMDA receptor and Ca ion influx amount (glutamic acid/glycine-induced, HEK293 cell co-expressing NR1 and NR2B subunits, Fluo-3/AM). Format: cell-based. On the procedure: Measurement of Expression of NMDA Receptor and Ca Ion Influx Amount
A complementary DNA (cDNA) of a mouse NMDA receptor subunit was transiently introduced into a HEK293 cell and, after 1 day from introduction, change in a glutamic acid/glycine-induced intracelluar Ca amount was measured using a Ca ion reactive fluorescent coloring matter.
The HEK293 cell was cultured, and passaged using a modified Dulbecco's Eagle medium (DMEM, low glucose).
The HEK293 cell (20,000/well) was seeded on a 96-well plate, a NR1 subunit and a NR2B subunit of the NMDA receptor incorporated into the pcDNA3.1 plasmid were transiently introduced into a cell, and the subunits were co-expressed. An introduction amount of a DNA was 0.025 μg in the case of the NR1 subunit, and 0.075 μg in the case of NR2B subunit per well. For the cell after introduction, cell death was inhibited using 50 μM of the NMDA receptor antagonist MK-801.
For adjusting a test compound and washing a cell, Krebs/Ringer/Hepes buffer (KRH, Ca: 5 mM) was used.
After 1 day from introduction, the NMDA receptor antagonist MK-801 was washed out using the KRH buffer, and a Ca ion indication fluorescent coloring matter Fluo-3/AM was made to be taken into the cell. Ca ion influx was induced with 20 μM glutamic acid/2 μM glycine. Change in a fluorescent amount due to Ca ion influx into the cell was measured at excitation of 480 nm using a fluorescent imaging system FDSS 3000.
From a measured value of the test compound, a Ca ion influx inhibition rate (%) was obtained by the following equation, and a dose at which influx is inhibited 50% (IC50) was calculated.
Ca ion influx inhibition rate(%)=100−[(fluorescent amount in the presence of test compound−background fluorescent amount)/(total fluorescent amount−background fluorescent)]×100

The target of another test is T2, NR1/NR2B receptor (Rattus norvegicus, UniProt P35439+Q00960).
T2 construct: from tissue; host or cells: rat cerebral cortex membranes (male Slc: Wistar rat)
Description: Test of binding with NMDA receptor (NR1/NR2B receptor): competition with [3H]-Ifenprodil on rat cerebral cortex membrane specimen. As for the experimental part: Test of Binding with NMDR Receptor (NR1/NR2B Receptor)
Using Ifenprodil which is an antagonist specific for a NR1/NR2B subtype receptor as a ligand, an experiment of competition between a receptor and a test compound was performed.
Using a male Slc: Wistar rat as an animal, a brain was isolated after decapitation, and a cerebral cortex was fractionated. The cerebral cortex was homogenized with a 20-fold amount of an ice-cooled 50 mM Tris/HCl buffer (pH 7.4), and the homogenate was centrifuged at 4° C. and 27,500×g for 10 minutes. The resulting precipitate was suspended in the same buffer, and this was again centrifuged. This operation was repeated for three times, the resulting precipitate was suspended in a buffer, and this was stored at −80° C. Immediately before an experiment, the frozen suspension was thawed at room temperature, this was centrifuged at 4° C. and 27,500×g for 10 minutes, and the resulting precipitate was suspended in a buffer. Further, the suspension was diluted 10-fold with a buffer, and this was used as a membrane specimen in an experiment. In a binding experiment, to 470 μl of the membrane specimen were added […] of each of test compounds having different concentrations, 10 μl of a labeled ligand [^3H]-Ifenprodil and 10 μl GBR-12909, followed by incubation at an ice temperature for 120 minutes. A concentration of [^3H]-Ifenprodil of the labeled ligand was finally 5 nM, and a concentration of GBR-12909 was finally 3 μM. For measuring a total binding amount, DMSO as a solvent was used and, for measuring a non-specific binding amount, 100 μM Ifenprodil was used. GBR-12909 was added in order to block binding of [^3H]-Ifenprodil to non-polyamine-sensitive site. After incubation, a bound formand a free foramwere separated using Whatman GF/C filter (manufactured by Whatman), and the filter was washed with 2.5 ml ice-cooled buffer four times. The filter was immersed in liquid scintillation (Cryasol I, manufactured by Nacalai tesque), and radioactivity (dpm) was measured with a liquid scintillation counter. From a measured value, a binding inhibition rate (%) was obtained by the following equation, and a dose at which binding is inhibited 50% (IC50) was calculated. A formula of GBR-12909 (vanoxerine) is shown below.
Binding inhibition rate(%)=100−[(binding amount in the presence of test compound−non-specific binding amount)/(total binding amount−non-specific binding amount)]×100

Setting [2] is: Ca ion influx induced with 20 μM glutamic acid/2 μM glycine, HEK293 cell with mouse NR1/NR2B, read-out: Ca2+ IC50.
The mark [3] stands for this setting: [3H]-Ifenprodil 5 nM, GBR-12909 3 μM, rat cerebral cortex membranes, ice temperature 120 minutes, read-out: NR2B (IC50 μM).
The mark [4] stands for this setting: same binding test, read-out: IC50 (binding with NR1/NR2B receptor).
[5] abbreviates: same Ca ion influx test, read-out: IC50 (Ca ion influx inhibition).

T2 sequence (Q00960 27-1482, other chains not shown): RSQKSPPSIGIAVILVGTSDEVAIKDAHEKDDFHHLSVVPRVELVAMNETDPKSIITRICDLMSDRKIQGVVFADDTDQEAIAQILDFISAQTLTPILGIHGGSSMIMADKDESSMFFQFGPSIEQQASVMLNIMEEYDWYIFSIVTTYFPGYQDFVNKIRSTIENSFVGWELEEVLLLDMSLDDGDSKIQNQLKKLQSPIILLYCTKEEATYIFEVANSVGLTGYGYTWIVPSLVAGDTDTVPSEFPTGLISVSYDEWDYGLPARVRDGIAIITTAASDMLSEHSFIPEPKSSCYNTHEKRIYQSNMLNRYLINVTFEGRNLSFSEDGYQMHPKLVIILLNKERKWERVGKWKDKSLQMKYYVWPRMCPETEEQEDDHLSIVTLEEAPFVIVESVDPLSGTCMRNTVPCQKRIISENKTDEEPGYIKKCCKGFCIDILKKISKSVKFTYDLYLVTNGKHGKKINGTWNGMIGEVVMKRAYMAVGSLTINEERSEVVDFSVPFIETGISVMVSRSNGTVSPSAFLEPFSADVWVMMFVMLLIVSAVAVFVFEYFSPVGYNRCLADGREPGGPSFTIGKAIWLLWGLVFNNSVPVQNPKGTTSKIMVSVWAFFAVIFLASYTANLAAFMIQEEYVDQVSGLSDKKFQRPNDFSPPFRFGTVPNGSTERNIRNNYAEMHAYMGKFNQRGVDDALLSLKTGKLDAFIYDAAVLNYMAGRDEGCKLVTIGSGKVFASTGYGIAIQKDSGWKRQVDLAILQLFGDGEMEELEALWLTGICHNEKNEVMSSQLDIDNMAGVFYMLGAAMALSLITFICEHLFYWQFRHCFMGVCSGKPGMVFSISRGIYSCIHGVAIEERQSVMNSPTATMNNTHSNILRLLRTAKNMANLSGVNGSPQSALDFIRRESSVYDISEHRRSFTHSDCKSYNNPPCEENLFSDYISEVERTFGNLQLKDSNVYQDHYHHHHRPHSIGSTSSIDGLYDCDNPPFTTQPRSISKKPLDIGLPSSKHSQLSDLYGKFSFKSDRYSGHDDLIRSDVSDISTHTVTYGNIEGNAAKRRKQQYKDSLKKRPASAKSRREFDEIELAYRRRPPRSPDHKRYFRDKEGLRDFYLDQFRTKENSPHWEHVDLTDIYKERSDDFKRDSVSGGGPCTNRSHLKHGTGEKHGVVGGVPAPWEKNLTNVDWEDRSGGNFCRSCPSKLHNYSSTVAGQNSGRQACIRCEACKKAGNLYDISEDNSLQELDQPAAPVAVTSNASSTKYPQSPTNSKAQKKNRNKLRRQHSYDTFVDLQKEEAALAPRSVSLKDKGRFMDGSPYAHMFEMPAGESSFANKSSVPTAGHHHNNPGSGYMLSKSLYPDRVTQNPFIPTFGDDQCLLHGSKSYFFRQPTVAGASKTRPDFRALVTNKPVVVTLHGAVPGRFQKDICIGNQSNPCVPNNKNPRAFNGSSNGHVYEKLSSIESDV
T1 sequence (Q01097 27-1482, other chains not shown): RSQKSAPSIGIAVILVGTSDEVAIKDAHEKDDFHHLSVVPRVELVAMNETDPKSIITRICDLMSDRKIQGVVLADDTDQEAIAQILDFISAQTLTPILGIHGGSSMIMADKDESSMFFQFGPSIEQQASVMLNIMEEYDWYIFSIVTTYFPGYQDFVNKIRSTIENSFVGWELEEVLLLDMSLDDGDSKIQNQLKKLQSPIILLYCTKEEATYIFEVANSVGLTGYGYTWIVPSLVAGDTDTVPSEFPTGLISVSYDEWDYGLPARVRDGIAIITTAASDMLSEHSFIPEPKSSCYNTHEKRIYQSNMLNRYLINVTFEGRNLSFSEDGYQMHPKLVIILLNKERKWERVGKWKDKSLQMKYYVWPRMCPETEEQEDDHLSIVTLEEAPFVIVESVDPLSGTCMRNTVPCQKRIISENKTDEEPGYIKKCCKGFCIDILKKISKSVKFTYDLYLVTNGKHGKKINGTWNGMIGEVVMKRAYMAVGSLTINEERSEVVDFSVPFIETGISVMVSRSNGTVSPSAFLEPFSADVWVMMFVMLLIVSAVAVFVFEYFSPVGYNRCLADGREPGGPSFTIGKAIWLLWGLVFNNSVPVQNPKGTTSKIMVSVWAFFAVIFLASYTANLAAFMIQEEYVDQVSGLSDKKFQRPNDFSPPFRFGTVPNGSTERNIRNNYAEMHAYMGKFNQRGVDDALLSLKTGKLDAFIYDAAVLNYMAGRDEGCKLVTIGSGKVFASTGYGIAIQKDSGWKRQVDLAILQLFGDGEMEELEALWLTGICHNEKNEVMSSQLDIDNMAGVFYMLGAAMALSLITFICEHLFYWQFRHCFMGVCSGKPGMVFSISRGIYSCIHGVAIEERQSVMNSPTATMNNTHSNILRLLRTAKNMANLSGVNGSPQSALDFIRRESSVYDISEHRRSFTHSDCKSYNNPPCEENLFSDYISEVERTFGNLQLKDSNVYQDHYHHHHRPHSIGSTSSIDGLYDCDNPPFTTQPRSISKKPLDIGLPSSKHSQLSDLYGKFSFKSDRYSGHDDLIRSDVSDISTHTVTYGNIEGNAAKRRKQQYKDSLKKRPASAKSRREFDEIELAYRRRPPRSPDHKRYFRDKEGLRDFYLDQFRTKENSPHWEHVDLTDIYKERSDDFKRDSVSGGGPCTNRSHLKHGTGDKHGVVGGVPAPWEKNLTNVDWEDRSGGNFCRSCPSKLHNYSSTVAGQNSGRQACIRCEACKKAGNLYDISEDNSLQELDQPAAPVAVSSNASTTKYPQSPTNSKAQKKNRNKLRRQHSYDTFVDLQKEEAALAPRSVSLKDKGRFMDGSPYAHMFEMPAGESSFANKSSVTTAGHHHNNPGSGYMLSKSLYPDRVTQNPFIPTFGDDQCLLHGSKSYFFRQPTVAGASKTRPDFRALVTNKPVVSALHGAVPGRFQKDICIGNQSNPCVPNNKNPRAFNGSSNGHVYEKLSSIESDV

In the case of `O=C(CC1CCN(c2ccc(C(F)(F)F)cc2)CC1)Nc1ccc2[nH]c(=O)oc2c1` [Compound I-8], the IC50 in test [1] (setting [2]) was found to be 0.048 µM.
On to `O=C(NCC1CCN(c2ccc(C(F)(F)F)cc2)CC1)c1ccc2[nH]c(=O)oc2c1` [Compound I-11], for which the IC50 in test [1] (setting [2]) came out at 0.069 µM.
In the case of `O=C(C=C1CCN(c2ccc(C(F)(F)F)cc2)CC1)Nc1ccc2[nH]c(=O)oc2c1` [Compound I-16], the IC50 in test [1] (setting [2]) is 0.037 µM.
Turning to `O=C(CCC1CCN(c2ccc(C(F)(F)F)cc2)CC1)Nc1ccc(=O)[nH]c1` [Compound I-21], the IC50 turned out to be 0.096 µM on NR1/NR2B receptor (setting [3]) and 0.037 µM in test [1] (setting [2]).
The matching figures for `O=C(Nc1ccc2[nH]c(=O)oc2c1)NC1CCN(c2ccc(C(F)(F)F)cc2)CC1` [Compound I-23]: 0.04 µM and 0.025 µM.
On to `O=C(Nc1ccc2[nH]c(=O)oc2c1)C(O)C1CCN(c2ccc(C(F)(F)F)cc2)CC1` (centres unmarked) [Compound I-25], for which the IC50 in test [1] (setting [2]) stood at 0.063 µM.
On the same count and under the same terms, next, `O=C(Nc1ccc2[nH]c(=O)oc2c1)C(=O)C1CCN(c2ccc(C(F)(F)F)cc2)CC1` [Compound I-26]: 0.048 µM.
Turning to `O=C(CC1(O)CCN(c2ccc(C(F)(F)F)cc2)CC1)Nc1ccc2[nH]c(=O)oc2c1` [Compound I-30], the IC50 is 0.077 µM on NR1/NR2B receptor (setting [3]) and 0.004 µM in test [1] (setting [2]).
For the molecule `O=C(C=C1CCN(c2ccc(F)cc2)CC1)Nc1ccc2[nH]c(=O)oc2c1` [Compound I-33], in test [1] (setting [2]), the IC50 was found to be 0.037 µM.
The same measure, in the same setting: the value for `O=C(CC1(O)CCN(c2ccc(Cl)cc2)CC1)Nc1ccc2[nH]c(=O)oc2c1` [Compound I-34] was 0.02 µM; that for `CC(C)c1ccc(N2CCC(O)(CC(=O)Nc3ccc4[nH]c(=O)oc4c3)CC2)cc1` [Compound I-40] was 0.015 µM; that for `O=C(C=C1CCN(c2cc(C(F)(F)F)ccn2)CC1)Nc1ccc2[nH]c(=O)oc2c1` [Compound I-41] was 0.092 µM.
As for `O=C(Nc1ccc2[nH]c(=O)oc2c1)C(F)=C1CCN(c2ccc(C(F)(F)F)cc2)CC1` [Compound I-42], the figures for the IC50 (on NR1/NR2B receptor (setting [3]); in test [1] (setting [2])) were 0.107 µM and 0.013 µM, respectively.
Turning to `O=C(C=C1CCN(c2ccc(C(F)(F)F)cn2)CC1)Nc1ccc2[nH]c(=O)oc2c1` [Compound I-43], the IC50 on NR1/NR2B receptor (setting [3]) amounted to 0.017 µM; in test [1] (setting [2]), 0.009 µM.
In the case of `O=C(C=C1CCN(c2ccc(Cl)cn2)CC1)Nc1ccc2[nH]c(=O)oc2c1` [Compound I-45], the IC50 was at most 0.1 µM at NR1/NR2B receptor (setting [4]) and 0.023 µM in test [1] (setting [2]).
On to `O=C(CC1=CCN(c2ccc(C(F)(F)F)cc2)CC1)Nc1ccc2[nH]c(=O)oc2c1` [Compound I-53], for which the IC50 in test [1] (setting [2]) was 0.067 µM.
For `O=C(Nc1ccc2[nH]c(=O)oc2c1)C(=O)N1CCN(c2ccc(C(F)(F)F)cc2)CC1` [Compound I-55], the IC50 at NR1/NR2B receptor (setting [3]) stood at 0.025 µM; in test [1] (setting [2]), 0.007 µM.
The matching figures for `O=C(CC1(O)CCN(c2ccc(C(F)(F)F)cc2)CC1)Nc1ccc2[nH]c(=O)sc2c1` [Compound I-70]: 0.068 µM and 0.015 µM.
In the case of `O=C(Nc1cnc2[nH]c(=O)oc2c1)C(=O)N1CCN(c2ccc(C(F)(F)F)cc2)CC1` [Compound I-74], in test [1] (setting [2]), the IC50 was found to be 0.039 µM.
Regarding `O=C(Nc1cnc2[nH]c(=O)oc2c1)C(=O)N1CCN(c2ccc(Cl)cc2)CC1` [Compound I-76], the IC50 in test [1] (setting [5]) is at most 0.1 µM.
As to `O=C(NCC1=CCN(c2ccc(C(F)(F)F)cc2)CC1)c1ccc2[nH]c(=O)sc2c1` [Compound I-78], the IC50 in test [1] (setting [2]) worked out at 0.031 µM.
Still for that read-out and setting: next, `O=C(CC1(O)CCN(c2ccc(F)c(C(F)(F)F)c2)CC1)Nc1ccc2[nH]c(=O)sc2c1` [Compound I-80]: 0.052 µM; `O=C(CC1(O)CCN(c2ccc(F)c(C(F)(F)F)c2)CC1)Nc1ccc2[nH]c(=O)oc2c1` [Compound I-81]: 0.062 µM.
Consider `O=C(Nc1ccc2[nH]c(=O)[nH]c2c1)C(=O)N1CCN(c2ccc(F)cc2)CC1` [Compound I-85], for which the IC50 at NR1/NR2B receptor (setting [3]) came out at 0.067 µM.
As for `O=C(Nc1ccc2[nH]c(=O)sc2c1)C(=O)N1CCN(c2ccc(F)cc2)CC1` [Compound I-89], the IC50 in test [1] (setting [2]) turned out to be 0.087 µM.
As for `O=C(Nc1cnc2[nH]c(=O)oc2c1)C(=O)N1CCN(c2ccc(Br)cc2)CC1` [Compound I-94], the IC50 in test [1] (setting [2]) was 0.051 µM.
Same read-out and setting: next, `O=C(Nc1ccc2[nH]c(=O)oc2c1)C(=O)N1CCN(c2ccc(F)c(Cl)c2)CC1` [Compound I-110]: 0.009 µM.
For the molecule `O=C(Nc1cnc2[nH]c(=O)oc2c1)C(=O)N1CCN(c2ccc(F)c(Cl)c2)CC1` [Compound I-111], in test [1] (setting [5]), the IC50 was at most 0.1 µM.
Consider `O=C(NCC1CCN(c2ccc(OC(F)(F)F)cc2)CC1)c1ccc2[nH]c(=O)oc2c1` [Compound I-122], for which the IC50 in test [1] (setting [2]) was 0.024 µM.
Same read-out and setting: next, `O=C(NCC1CCN(c2ccc(Cl)c(Cl)c2)CC1)c1ccc2[nH]c(=O)oc2c1` [Compound I-138]: 0.044 µM.
Consider `O=C(NCC1CCN(c2ccc(Cl)c(F)c2)CC1)c1ccc2[nH]c(=O)oc2c1` [Compound I-140], for which the IC50 in test [1] (setting [2]) came to 0.044 µM.
Turning to `O=C(Nc1cnc2[nH]c(=O)oc2c1)C(=O)N1CCCN(c2ccc(Cl)c(F)c2)CC1` [Compound I-155], in test [1] (setting [2]), the IC50 was found to be 0.053 µM.
For the molecule `C[C@H]1CN(C(=O)C(=O)Nc2ccc3[nH]c(=O)oc3c2)CCN1c1ccc(Cl)cc1` [Compound I-176], in test [1] (setting [5]), the IC50 is at most 0.1 µM.
As to `O=C(C=C1CCN(c2ccc(Cl)c(F)c2)CC1)Nc1ccc2[nH]c(=O)oc2c1` [Compound I-188], the IC50 on NR1/NR2B receptor (setting [3]) was found to be 0.021 µM.
Same read-out and setting: next, `O=C(C=C1CCN(c2ccc(F)c(F)c2)CC1)Nc1ccc2[nH]c(=O)oc2c1` [Compound I-192]: 0.052 µM.
For the molecule `O=C(CC1(O)CCN(c2ccc(Cl)c(Cl)c2)CC1)Nc1cnc2[nH]c(=O)oc2c1` [Compound I-197], the IC50 in test [1] (setting [2]) was determined as 0.059 µM.
As for `O=C(Nc1ccc2[nH]c(=O)oc2c1)C(=O)N1CCN(c2ccc(C(F)(F)F)nc2)CC1` [Compound I-198], the IC50 at NR1/NR2B receptor (setting [3]) worked out at 0.073 µM.
Same read-out and setting: next, `O=C1Cc2cc(NC(=O)C(=O)N3CCN(c4ccc(Cl)c(F)c4)CC3)ccc2N1` [Compound I-200]: 0.081 µM; `O=C1Cc2cc(NC(=O)C(=O)N3CCN(c4ccc(C(F)(F)F)c(F)c4)CC3)ccc2N1` [Compound I-201]: 0.074 µM.
As to `C[C@@H]1CN(C(=O)C(=O)Nc2ccc3[nH]c(=O)oc3c2)CCN1c1ccc(OC(F)(F)F)cc1` [Compound I-212], the IC50 in test [1] (setting [5]) was at most 0.1 µM.
Turning to `O=C(CC1CCN(c2ccc(OC(F)(F)F)cc2)CC1)Nc1ccc2[nH]c(=O)oc2c1` [Compound I-226], at NR1/NR2B receptor (setting [4]), the IC50 was at most 0.1 µM.
The same measure, in the same setting: the value for `COc1ccc(N2CCN(C(=O)C(=O)Nc3ccc4[nH]c(=O)oc4c3)CC2)cc1F` [Compound I-232] was at most 0.1 µM; that for `O=C(CN1CCN(c2ccc(C(F)(F)F)cc2)CC1)Nc1ccc2[nH]c(=O)oc2c1` [Compound I-235] was at most 0.1 µM; that for `O=C(CC1CCN(c2ccc(OC(F)F)cc2)CC1)Nc1ccc2[nH]c(=O)oc2c1` [Compound I-239] was at most 0.1 µM.
Same read-out and setting: next, `C[C@@H]1CN(c2ccc(Cl)cn2)CCN1C(=O)C(=O)Nc1ccc2[nH]c(=O)oc2c1` [Compound I-241]: at most 0.1 µM.
